The experiment is described as follows: Inhibitory activity against eosinophil degranulation. Format: functional.
Turning to `COC(=O)c1cc(O)cc(OC)c1C(=O)c1c(O)cc(C)cc1O` [SULOCHRIN], the IC50 (usually the concentration that gives 50% inhibition) stood at 100 nM.

`COC(=O)c1cc(O)cc(O)c1C(=O)c1c(O)cc(C)cc1O` returned an IC50 greater than 10000 nM. The value for `CCCOC(=O)c1cc(O)cc(OC)c1C(=O)c1c(O)cc(C)cc1O` was 100 nM; that for `CCC(C)OC(=O)c1cc(O)cc(OC)c1C(=O)c1c(O)cc(C)cc1O` (stereo not drawn) was 30 nM. `COC(=O)c1cc(O)cc(O)c1C(=O)c1c(O)cc(C)cc1OC` showed an IC50 of 400 nM. `COC(=O)c1cc(O)cc(O)c1C(=O)c1c(OC)cc(C)cc1OC` had an IC50 greater than 10000 nM.

On to `CCCCCCOC(=O)c1cc(O)cc(OC)c1C(=O)c1c(O)cc(C)cc1O`, for which the IC50 turned out to be 300 nM. That is a sub-micromolar value. Compound `COc1cc(O)cc(C(=O)O)c1C(=O)c1c(O)cc(C)cc1O` yielded an IC50 greater than 10000 nM. The compound `COc1cc(O)ccc1C(=O)c1c(O)cc(C)cc1O` came in with an IC50 greater than 10000 nM.

For the compound `COC(=O)c1cc(O)cc(OC)c1C(=O)c1c(OCCO)cc(C)cc1OCCO`, the IC50 is greater than 10000 nM. For the compound `COC(=O)c1cc(O)cc(OC)c1C(=O)c1c(O)cc(C)cc1OC`, the midpoint of inhibition, the IC50, lay at 300 nM. In other words, the sub-micromolar range. The value for `CCCCOC(=O)c1cc(O)cc(OC)c1C(=O)c1c(O)cc(C)cc1O` was 40 nM. Then `CCOC(=O)c1cc(O)cc(OC)c1C(=O)c1c(O)cc(C)cc1O`, with 100 nM.

Values taken from ChEMBL document CHEMBL1131787, “Effects of ortho-substituent groups of sulochrin on inhibitory activity to eosinophil degranulation” (Bioorg Med Chem Lett, 1999).
